Measurements reported in patent US10251865B2, “Method of activating regulatory T cells with alpha-2B adrenergic receptor agonists” (Allergan, Inc., priority 2010, dated 2019).

Columns and labels:
[1] = tested on: IL-2; experiment: IL-2 levels in tissues from SNL rats (Luminex cytokine analysis); assay type: in vivo, rat; settings: for IL-2 level, Ipsilateral DRGL4 / IL-2 level, Ipsilateral DRGL5, L6 / IL-2 level, Ipsilateral spinal cord / IL-2 level, Serum: 2.4 mg/kg/day via osmotic minipump, mean ± SEM
Procedure: (§1) The SNL (or Chung) Model in the rat is an accepted standard animal model of neuropathic pain and is thought to mimic the human causalgia condition with respect to symptoms (guarding behavior, mechanical allodynia) and alleviation by pharmacological agents. […] The SNL Model is performed by tightly ligating the L-5 and L-6 spinal nerves, which produces tactile allodynia or sensitivity to light touch as described (Kim and Chung, 1992). Male sprague-dawley rats (100-120 grams; Charles River, Wilmington, Mass.) were anesthetized through inhalation of an isoflurane/oxygen mix. The surgical site was shaved and prepared with betadine. An incision was made from the thoracic vertebra XIII toward down the sacrum. The muscle was separated from the spinal vertebra (left side) at the L4-S2 levels. The L6 vertebra was located and then the transverse process was carefully removed with a small rongeur to visually identify the L4-L6 spinal nerves. The L5 and L6 spinal nerves was isolated and tightly ligated with 6-0 silk thread. A complete homeostasis was confirmed and then the wound was sutured. The duration of the surgery was approximately 20 minutes. A small amount of antibiotic ointment was applied to the incised area and the animals were transferred to a plastic recovery cage under a regulated heat-temperature lamp. Animals were not given any topical or local anesthetics post-operatively because they will inhibit the development of the pain syndrome, which is the phenomenon to be studied.
Compound A was formulated in 50% DMSO (Sigma, St. Louis, Mo.). This solution was loaded into the osmotic minipumps (Model 1007D, Alzet Corp., Palo Alto, Calif.) set to deliver the drug at a rate of 0.5 ul/hr resulting in a final dose of 2.4 mg/kg/day. The vehicle for these studies is 50% DMSO administered via osmotic minipumps at a rate of 0.5 ul/hr/kg.
The levels of cytokines were measured with a sensitive, fluorescent multiplex immunobead assay (Luminex; Biosource-Invitrogen, Carlsbad, Calif.). 9 plex rat cytokine/chemokine (RCYTO-80K-09) panel from Millipore was used. Cytokine levels in samples were analyzed by using the corresponding Millipore cytokine Beadmate pairs. For the Luminex assay, a 96-well filter plate (Millipore) was pre-wetted with 25 μl of Beadlyte cytokine assay buffer. A vacuum manifold (Millipore, Billerica, Mass.) was used to aspirate the buffer from the wells. 25 μl of sample was placed in each well. The beads (25 μl) were pipetted into the wells. Standard curves for each cytokine were generated in duplicate by placing 25 μl of the appropriate dilution of standards purchased from Millipore. The plate was incubated overnight with gentle shaking in the dark at 4° C. Beads were washed with Beadlyte cytokine assay buffer (Millipore) and wash buffer was eliminated using a vacuum manifold. 25 μl of the appropriate biotin-conjugated secondary antibody (Millipore) was added to each well for 90 minutes at room temperature with gentle shaking. Beads were incubated with Beadlyte streptavidin-phycoerythrin (1:25 dilution in Beadlyte assay buffer) for 30 minutes at room temperature with gentle shaking. Beads were washed, resuspended in 125 μl of Beadlyte buffer, and analyzed by Luminex 100 instrument (Luminex Corporation, Austin, Tex.). The mean fluorescence intensities obtained from 50 beads per cytokine minimum were analyzed using Upstate Beadview software. Standard curves were generated (8 data points including a zero standard run in duplicate) using a four- or five-parametric logistic curve. R-squared values were between 0.99 and 1. Data are expressed in pg/ml or ng/ml values.

[2] = tested on: SNL Rat Model of Allodynic Neuropathic Pain; experiment: Allodynia reversal (Von Frey) in the SNL Rat Model of Allodynic Neuropathic Pain; assay type: in vivo; settings: SNL rats, 3 mg/kg BID SC alone
Procedure: as §1
The allodynia is quantitated in the animals having received the Chung surgery by stimulation with a series of 8 Von Frey hairs on the mid planter area of the surgical hind paw in the up-down manner as described in the literature (Dixon, 1980). Von Frey hairs are applied in an up-down manner depending on the response until the 50% threshold is established. The Von Frey hairs are applied to the plantar surface of the surgical paw with just enough force to bend them. A positive response is recorded if the paw is sharply withdrawn. Eight Von Frey hairs were used 3.61, 3.84, 4.08, 4.31, 4.56, 4.74, 4.93 and 5.18 yielding a gram force of 0.25-15 grams.
[formula] • Mean±SEM: • Mean=average of allodynia reversals • SEM=STDEV/SQ ROOT of n
Testing with compounds is done 2-3 weeks after surgery to establish stable allodynia. In all experimental animals, baseline measurements were taken prior to drug administration and then at 24 hours and 5-23 days post dosing with Alzet osmotic minipump. The investigator was blinded to the identity of the drug groups. The % allodynia reversal is calculated as: [(Postdrug threshold−Predrug threshold)/(15-Predrug threshold)]×100.
Compound B was formulated in 50% DMSO (dimethyl sulfoxide; Sigma, St. Louis, Mo.). This solution was dosed orally TID at a dose of 0.3 or 1 mg/kg. For dosing in the osmotic minipumps (Model 1007D, Alzet Corp., Palo Alto, Calif.) the compound was loaded onto the pumps set to deliver a final dose of either 1 or 3 mg/kg/day. The vehicle for these studies is 50% DMSO.
Compound C was formulated first in 100% DMSO (Sigma, St. Louis, Mo.), then diluted down in 30% DMSO for a 10 mg/ml solution; 15% DMSO for a 3 mg/ml solution and further dilutions were made in water. The compound was dosed orally TID at a dose of either 0.3 or 1 mg/kg for a total daily dose of 1 or 3 mg/kg/day, respectively.

[3] = tested on: SNL Rat Model of Allodynic Neuropathic Pain; settings: background statement on the model, cited from earlier work
[4] = Table 3 study, mean % MPE ± SEM

OCCNC(=S)NCc1cccc(Cl)c1F [Compound A]
IL-2 level, Ipsilateral DRGL4 ([1]; 24 hours): 101.63 ± 20.55 pg/mL | IL-2 level, Ipsilateral DRGL5, L6 ([1]; 24 hours): 211 ± 33.72 pg/mL | IL-2 level, Ipsilateral spinal cord ([1]; 24 hours): 345 ± 19.34 pg/mL | IL-2 level, Serum ([1]; 24 hours): 978 ± 77.13 pg/mL | IL-2 level, Ipsilateral DRGL4 ([1]; 5 days): 69.52 ± 9.42 pg/mL | IL-2 level, Ipsilateral DRGL5, L6 ([1]; 5 days): 138.35 ± 22.59 pg/mL | IL-2 level, Ipsilateral spinal cord ([1]; 5 days): 351.75 ± 17.19 pg/mL | IL-2 level, Serum ([1]; 5 days): 380.25 ± 61.67 pg/mL | spinal nerve ligation surgery-induced increase of IL-2 levels ([1]; result in words): attenuated

C=CC[C@@H]1/C=C(\C)C[C@H](C)C[C@H](OC)[C@H]2O[C@@](O)(C(=O)C(=O)N3CCCC[C@H]3C(=O)O[C@H](/C(C)=C/[C@@H]3CC[C@@H](O)[C@H](OC)C3)[C@H](C)[C@@H](O)CC1=O)[C@H](C)C[C@@H]2OC [FK506, reference compound]
% Allodynia Reversal 24 hr post ([2]; Table 2 study): −5.77 ± 3.43% | % Allodynia Reversal 7 day post ([2]; Table 2 study): −6.39 ± 4.85% | % Allodynia Reversal 24 hr post [2, 4]: −0.53 ± 6.21% | % Allodynia Reversal 23 day post [2, 4]: 2.01 ± 5.86%

NCC1(CC(=O)O)CCCCC1 [Gabapentin]
alleviation of allodynia ([3]; 30 mg/kg p.o.): 50%

CN1CC[C@]23c4c5ccc(O)c4O[C@H]2[C@@H](O)C=C[C@H]3[C@H]1C5 [morphine]
alleviation of tactile allodynia [3]: does not alleviate
